According to the NIST ThermoML archive (doi:10.1016/j.jct.2007.05.016):
Where “and” joins values, the source holds several entries; their conditions need not be identical. Equal entries are not always repeated. Numbers after ± are expanded uncertainties.

How the values were obtained:
[1] = 101 kPa, Liquid; for speed of sound: Sing-around technique in a fixed-path interferometer
[2] = xn = mol fraction of the nth substance listed; details: 101 kPa, Liquid, x1 = 1; for speed of sound: Sing-around technique in a fixed-path interferometer

Row | SMILES | mass density ([1]; 298.15 K) [kg/m3] | viscosity ([1]; 298.15 K) [mPa·s] | speed of sound ([1]; 298.15 K) | mass density ([1]; 303.15 K) [kg/m3] | speed of sound ([1]; 303.15 K) [m/s] | mass density ([1]; 308.15 K) [kg/m3] | speed of sound ([1]; 308.15 K) [m/s] | speed of sound ([2]; 298.15 K) [m/s] | mass density ([2]; 298.15 K) [kg/m3] | viscosity ([2]; 298.15 K) [mPa·s] | speed of sound ([2]; 303.15 K) [m/s] | mass density ([2]; 303.15 K) [kg/m3] | speed of sound ([2]; 308.15 K) [m/s] | mass density ([2]; 308.15 K) [kg/m3]
1 | CCCCO [butan-1-ol] + CCCCCC |  |  |  |  |  |  |  | 1240.5 ± 1.2 | 805.907 ± 0.77 | 2.573 ± 0.032 | 1226.5 ± 1.2 | 803.155 ± 0.78 | 1209.8 ± 1.2 | 799.249 ± 0.78
2 | CCCCO [butan-1-ol] + CCCCCCCC |  |  |  |  |  |  |  | 1240.4 ± 1.2 | 805.907 ± 0.77 | 2.573 ± 0.032 | 1226.5 ± 1.2 | 803.155 ± 0.78 | 1209.8 ± 1.2 | 799.249 ± 0.78
3 | CCCCCCCC [octane] | 698.58 ± 0.99 | 0.518 ± 0.009 | 1172.7 ± 1.2 m/s | 694.497 ± 1 | 1152.1 ± 1.2 | 690.416 ± 1 | 1131.7 ± 1.2 |  |  |  |  |  |  | 

The remaining lines, values ahead:

Row | mass density ([1]; 298.15 K) [kg/m3] | viscosity ([1]; 298.15 K) [mPa·s] | speed of sound ([1]; 298.15 K) | mass density ([1]; 303.15 K) [kg/m3] | speed of sound ([1]; 303.15 K) [m/s] | mass density ([1]; 308.15 K) [kg/m3] | speed of sound ([1]; 308.15 K) [m/s] | speed of sound ([2]; 298.15 K) [m/s] | mass density ([2]; 298.15 K) [kg/m3] | viscosity ([2]; 298.15 K) [mPa·s] | speed of sound ([2]; 303.15 K) [m/s] | mass density ([2]; 303.15 K) [kg/m3] | speed of sound ([2]; 308.15 K) [m/s] | mass density ([2]; 308.15 K) [kg/m3] | SMILES
4 | 805.907 ± 0.77 | 2.573 ± 0.032 | 1240.5 ± 1.2 m/s and 1240.4 ± 1.2 m/s | 803.155 ± 0.78 | 1226.5 ± 1.2 | 799.249 ± 0.78 | 1209.8 ± 1.2 |  |  |  |  |  |  |  | CCCCO [butan-1-ol]
5 |  |  |  |  |  |  |  | 1240.5 ± 1.2 | 805.907 ± 0.77 | 2.573 ± 0.032 | 1226.5 ± 1.2 | 803.155 ± 0.78 | 1209.8 ± 1.2 | 799.249 ± 0.78 | CCCCO [butan-1-ol] + CCCCCCCCCC
6 | 726.806 ± 0.93 | 0.852 ± 0.012 | 1234.8 ± 1.2 m/s | 723.042 ± 0.94 | 1215.2 ± 1.2 | 719.23 ± 0.95 | 1195.6 ± 1.2 |  |  |  |  |  |  |  | CCCCCCCCCC [decane]
7 | 655.072 ± 1.1 | 0.313 ± 0.008 | 1077.8 ± 1.2 m/s | 650.369 ± 1.1 | 1055.2 ± 1.1 | 645.767 ± 1.1 | 1032.9 ± 1.1 |  |  |  |  |  |  |  | CCCCCC [hexane]
